# System: BOIVE: whitehead broom (Borerria verticillata)
# Test: Postemergence herbicidal activity of mixtures in the field (visual weed control)
# Type: in vivo
# Method: Field trials were conducted in Brazil in pasture area cultivated with Brachiaria brizantha using standard herbicide small-plot research methodology. The plot size used was 3×8 meter (m; width×length) with 4 replicates per treatment. The pasture was grown using normal cultural practices for fertilization, management, and maintenance to ensure good growth of the crop and the weeds.
# All treatments in the field trials were applied using a carbon dioxide (CO2) backpack air sprayer with flat fan nozzles (110.03°), calibrated to apply 250 liters per hectare (L/ha) spray volume at approximately 35 pounds per square inch (PSI). Formulations of aminopyralid (triisopropanolammonium salt) at 100 grams acid equivalent per hectare (g ae/ha) and aminopyralid (potassium salt, 525grams acid equivalent per kilogram (g ae/kg))+metsulfuron-methyl (94.5 grams active ingredient per kilogram (g ai/kg)) at 118 grams per hectare (g/ha) were mixed with imazapic at 70 and 140 g ae/ha and water+Joint Mineral Oil at appropriate formulated product rates to achieve the desired rates based on a unit area of application (hectare) as shown. Treatments were rated at 15 to 281 days after application (DAA) as compared to the untreated control plants. Visual weed control of BOIVE was scored on a scale of 0 to 100 percent where 0 corresponds to no injury and 100 corresponds to complete kill.
# All treatment results, both for the single product and mixtures, are an average of 3 to 4 replicates and the tank-mix interactions are significant at the […] level.
# Colby's equation was used to determine the herbicidal effects expected from the mixtures (Colby, S.R. Calculation of the synergistic and antagonistic response of herbicide combinations. Weeds 1967, 15, 20-22). […]
# The experiments described herein in Table 2 were performed such that the “B” component in Colby's equation was the activity for the combination of aminopyralid and metsulfuron and only the activity for the combination was determined. […]
Structure (SMILES),% Visual Control BOIVE (281 DAA) Obs (Aminopyralid (triisopropanolammonium salt) 100 g ae/ha alone) [%],"% Visual Control BOIVE (281 DAA) Obs (Imazapic (ammonium salt) 70 g ae/ha alone, postemergence field trial, Brazil pasture) [%]","% Visual Control BOIVE (281 DAA) Obs (Imazapic (ammonium salt) 140 g ae/ha alone, postemergence field trial) [%]"
"Nc1cc(Cl)nc(C(=O)O)c1Cl [Aminopyralid, 4-amino-3,6-dichloro-2-pyridinecarboxylic acid]",41,,
"Cc1cnc(C2=NC(C)(C(C)C)C(=O)N2)c(C(=O)O)c1 (racemic) [Imazapic, (±)-2-[4,5-dihydro-4-methyl-4-(1-methylethyl)-5-oxo-1H-imidazol-2-yl]-5-methyl-3-pyridinecarboxylic acid]",,0,14

# Source: patent US20150173358A1, “HERBICIDAL COMPOSITIONS CONTAINING IMAZAPIC, AMINOPYRALID AND OPTIONALLY METSULFURON” (DOW AGROSCIENCES LLC, priority 2013, published 2015)
